# Results from paper PMC11078746 (Nature, 2024).
# Like-named read-outs stand apart in the source and are kept apart here.
# Tests used:
# 2313287 [1] = test: CFA 10-14 day clonogenic assay; format: cell-based; details: Homo sapiens
# IGROV1 = test: CFA 10-14 day clonogenic assay; format: cell-based; details: Homo sapiens, IGROV-1
# HEC6 = test: 4 day proliferation assay (CellTiter-Glo); details: Homo sapiens, HEC-6, 96 h, read-out: 4 day assay GI50
# 2313287 [2] = test: 4 day proliferation assay (CellTiter-Glo); details: Homo sapiens, 96 h, read-out: 4 day assay GI50
# COX1 = COX1 (Homo sapiens, UniProt P23219); test: Safety pharmacology panel
# COX1, sequence (P23219 24-599): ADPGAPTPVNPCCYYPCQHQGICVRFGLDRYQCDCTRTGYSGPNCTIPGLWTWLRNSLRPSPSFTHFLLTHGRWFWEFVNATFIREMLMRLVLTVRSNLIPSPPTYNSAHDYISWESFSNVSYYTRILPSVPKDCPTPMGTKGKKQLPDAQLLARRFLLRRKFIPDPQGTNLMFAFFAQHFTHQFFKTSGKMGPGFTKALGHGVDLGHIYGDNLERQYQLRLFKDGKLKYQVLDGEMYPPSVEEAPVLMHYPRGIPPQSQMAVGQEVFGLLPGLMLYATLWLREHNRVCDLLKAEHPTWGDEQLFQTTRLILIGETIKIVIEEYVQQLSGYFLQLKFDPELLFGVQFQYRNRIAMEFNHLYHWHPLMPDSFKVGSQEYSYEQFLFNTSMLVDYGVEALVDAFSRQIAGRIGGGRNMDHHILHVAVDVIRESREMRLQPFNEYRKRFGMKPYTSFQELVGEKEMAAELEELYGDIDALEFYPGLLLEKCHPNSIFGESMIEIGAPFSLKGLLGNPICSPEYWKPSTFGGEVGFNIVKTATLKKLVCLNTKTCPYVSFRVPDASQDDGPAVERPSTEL
# CAL33 = test: CFA 10-14 day clonogenic assay; format: cell-based; details: Homo sapiens, CAL-33
# JHUEM2 = test: 4 day proliferation assay (CellTiter-Glo); details: Homo sapiens, 96 h, read-out: 4 day assay GI50
# SW48 xenografts = test: SW48 xenograft efficacy, HRO761, irinotecan and combination; format: in vivo, mouse
# Protocol: All animal studies were conducted in accordance with ethics and procedures covered by permit BS-2275 and BS-1975 issued by the Kantonales Veterinäramt Basel-Stadt and in strict adherence to guidelines of the Eidgenössisches Tierschutzgesetz and the Eidgenössische Tierschutzverordnung, Switzerland. All animal studies were approved by the internal ethics committee. All animals had access to food and water ad libitum and were identified with transponders. They were housed in a specific-pathogen-free facility in IVC racks under a 12 h–12 h light–dark cycle. To establish cell-line-derived xenograft models, 6–7-week-old female athymic nude (Crl:NU(NCr)-Foxn1^nu) or SCID-BEIGE (CB17.Cg-PrkdcscidLystbg-J/Crl) mice from Charles River were engrafted subcutaneously with 5 million tumour cells in HBSS (H6648, Sigma-Aldrich). For SNU-407, Lovo, IM95, RL95.2, Ishikawa and IGROV-1, the cells were concentrated in 50% Matrigel (354234, Corning). Patient-derived xenografts were induced and expanded by transplantation as previously described. […] For the efficacy experiment, mice were randomized into groups (n = 5–6) for a mean tumour size of 100–150 mm^3. […] Blood samples were collected on day 7 and 91. […] Tumour responses are reported with the measures of tumour volumes from the treatment start. […] Animals were randomized (n = 3) and tumour samples were collected at 0, 1, 4, 8 and 24 h on the first day and then collected 4 h after the last treatment on day 3, 8, 10, 14 (including a 24 h timepoint), 17 and 21. Tumours were excised, weighed, either frozen in liquid nitrogen and cryogenic dry pulverized with the CryoPrep system (model CP-02, Covaris) or processed to FFPE after fixation. […] On day 12, blood samples were collected for PK analysis. On the last day (3 h after the last treatment), tumours were excised, weighed, frozen in liquid nitrogen and cryogenic dry pulverized for PD analysis.
# TGBC11TKB = test: 4 day proliferation assay (CellTiter-Glo); details: Homo sapiens, 96 h, read-out: 4 day assay GI50
# HEC151 = test: 4 day proliferation assay (CellTiter-Glo); details: Homo sapiens, 96 h, read-out: 4 day assay GI50
# RL952 = test: 4 day proliferation assay (CellTiter-Glo); details: Homo sapiens, RL95-2, 96 h, read-out: 4 day assay GI50
# OC314 = test: 4 day proliferation assay (CellTiter-Glo); details: Homo sapiens, OC-314, 96 h, read-out: 4 day assay GI50
# LS180 = test: 4 day proliferation assay (CellTiter-Glo); details: Homo sapiens, LS180, 96 h, read-out: 4 day assay GI50
# SNUC2A = test: CFA 10-14 day clonogenic assay; format: cell-based; details: Homo sapiens
# Rat PK = format: in vivo
# Protocol: (§1) PK parameters were determined by non-compartmental analysis. Intravenous bolus studies in mouse, rat and dog were performed at 1, 1 and 0.1 mg per kg respectively (Extended Data Table 1).
# NUGC3 = test: 4 day proliferation assay (CellTiter-Glo); details: Homo sapiens, NUGC-3, 96 h, read-out: 4 day assay GI50
# [3] = CL in vivo, intravenous bolus; details: whole blood
# Protocol: as §1
# HEC108 = test: CFA 10-14 day clonogenic assay; format: cell-based; details: Homo sapiens
# CL34 = test: CFA 10-14 day clonogenic assay; format: cell-based; details: Homo sapiens
# 102 common targets = test: Safety pharmacology panel; details: all except COX1
# SW48 = test: 4 day proliferation assay (CellTiter-Glo); details: for GI50: Homo sapiens, SW48, 96 h
# logD / logP = format: physicochemical; details: for logD: 1-octanol/water, pH 7.4, 1-octanol and water at pH 7.4
# DLD-1 (HCT15) = test: CFA 10-14 day clonogenic assay; format: cell-based; details: Homo sapiens
smiles,measurement,setting,value
CCc1c(N2CCN(C(=O)c3ncnc(C)c3O)CC2)c(=O)n2nc(C3=CCOCC3)nc2n1CC(=O)Nc1ccc(C(F)(F)F)cc1Cl [HRO761],GI50,2313287 [1],2080 nM
same,GI50,IGROV1,473 nM
same,GI50,HEC6,365 nM
same,GI50,2313287 [2],≥ 10000 nM
same,Safety pharmacology panel: COX1,COX1,9 μM
same,GI50,CAL33,≥ 10000 nM
same,GI50,JHUEM2,≥ 10000 nM
same,Mean TVol (mm3),"SW48 xenografts; HRO761 20mg/kg, day 0 post 1st dose",247.56 mm3
same,Mean TVol (mm3),"SW48 xenografts; HRO761 20mg/kg, day 7 post 1st dose",408.23 mm3
same,Mean TVol (mm3),"SW48 xenografts; HRO761 20mg/kg, day 14 post 1st dose",343.04 mm3
same,Mean TVol (mm3),"SW48 xenografts; HRO761 20mg/kg, day 21 post 1st dose",353.40 mm3
same,Mean TVol (mm3),"SW48 xenografts; HRO761 20mg/kg, day 28 post 1st dose",598.05 mm3
same,Mean TVol (mm3),"SW48 xenografts; HRO761 20mg/kg, day 35 post 1st dose",1006.91 mm3
same,Mean TVol (mm3),"SW48 xenografts; HRO761 20mg/kg, day 4 post 1st dose",324.64 mm3
same,Mean TVol (mm3),"SW48 xenografts; HRO761 20mg/kg, day 11 post 1st dose",389.58 mm3
same,Mean TVol (mm3),"SW48 xenografts; HRO761 20mg/kg, day 18 post 1st dose",304.90 mm3
same,Mean TVol (mm3),"SW48 xenografts; HRO761 20mg/kg, day 25 post 1st dose",411.31 mm3
same,Mean TVol (mm3),"SW48 xenografts; HRO761 20mg/kg, day 32 post 1st dose",799.70 mm3
same,Mean TVol (mm3),"SW48 xenografts; HRO761 40mg/kg, day 0 post 1st dose, n=6",170.74 mm3
same,Mean TVol (mm3),"SW48 xenografts; HRO761 40mg/kg, day 3 post 1st dose, n=6",266.92 mm3
same,Mean TVol (mm3),"SW48 xenografts; HRO761 40mg/kg, day 7 post 1st dose, n=6",238.47 mm3
same,Mean TVol (mm3),"SW48 xenografts; HRO761 40mg/kg, day 10 post 1st dose, n=6",242.34 mm3
same,Mean TVol (mm3),"SW48 xenografts; HRO761 40mg/kg, day 14 post 1st dose, n=6",187.67 mm3
same,Mean TVol (mm3),"SW48 xenografts; HRO761 40mg/kg, day 17 post 1st dose, n=6",156.98 mm3
same,Mean TVol (mm3),"SW48 xenografts; HRO761 40mg/kg, day 21 post 1st dose, n=6",121.57 mm3
same,Mean TVol (mm3),"SW48 xenografts; HRO761 40mg/kg, day 24 post 1st dose, n=6",71.41 mm3
same,Mean TVol (mm3),"SW48 xenografts; HRO761 40mg/kg, day 28 post 1st dose, n=6",43.54 mm3
same,Mean TVol (mm3),"SW48 xenografts; HRO761 40mg/kg, day 31 post 1st dose, n=6",43.20 mm3
same,Mean TVol (mm3),"SW48 xenografts; HRO761 40mg/kg, day 35 post 1st dose, n=6",52.04 mm3
same,Mean TVol (mm3),"SW48 xenografts; HRO761 40mg/kg, day 38 post 1st dose, n=6",63.12 mm3
same,Mean TVol (mm3),"SW48 xenografts; HRO761 40mg/kg, day 43 post 1st dose, n=6",108.93 mm3
same,Mean TVol (mm3),"SW48 xenografts; HRO761 40mg/kg, day 46 post 1st dose, n=6",106.14 mm3
same,Mean TVol (mm3),"SW48 xenografts; HRO761 40mg/kg, day 49 post 1st dose, n=6",165.61 mm3
same,Mean TVol (mm3),"SW48 xenografts; HRO761 40mg/kg, day 52 post 1st dose, n=6",180.62 mm3
same,Mean TVol (mm3),"SW48 xenografts; HRO761 40mg/kg, day 56 post 1st dose, n=6",250.37 mm3
same,Mean TVol (mm3),"SW48 xenografts; HRO761 40mg/kg, day 59 post 1st dose, n=6",307.84 mm3
same,Mean TVol (mm3),"SW48 xenografts; HRO761 40mg/kg, day 63 post 1st dose, n=6",385.98 mm3
same,Mean TVol (mm3),"SW48 xenografts; HRO761 40mg/kg, day 67 post 1st dose, n=6",504.27 mm3
same,Mean TVol (mm3),"SW48 xenografts; HRO761 40mg/kg, day 70 post 1st dose, n=6",521.42 mm3
same,Mean TVol (mm3),"SW48 xenografts; HRO761 40mg/kg, day 73 post 1st dose, n=6",687.64 mm3
same,GI50,TGBC11TKB,178 nM
same,GI50,HEC151,≥ 10000 nM
same,GI50,RL952,144 nM
same,GI50,OC314,≥ 10000 nM
same,GI50,LS180,3500 nM
same,GI50,SNUC2A,25 nM
same,"Rat PK, oral bioavailability (F)",Rat PK,74 % F
same,GI50,NUGC3,≥ 10000 nM
same,clearance,"[3]; 0.1 mg/kg, dog, intravenous bolus 0.1 mg per kg",4.3 mL/min/kg
same,clearance,"[3]; 1 mg/kg, mouse, intravenous bolus 1 mg per kg",29 mL/min/kg
same,clearance,"[3]; 1 mg/kg, rat, intravenous bolus 1 mg per kg",5.3 mL/min/kg
same,GI50,HEC108,104 nM
same,GI50,CL34,39 nM
same,Safety pharmacology panel (102 common targets),102 common targets,> 30 μM
same,GI50,SW48; HRO761 alone,100 nM
same,GI50,SW48; HRO761 dose response with 3.2 µM ATMi KU-55933,200 nM
same,GI50,"SW48; read-out: 4 day assay GI50, SW48",58 nM
same,unbound GI90,SW48; SW48,160 nM
same,logP,logD / logP,3.4
same,logD,logD / logP,1.8
same,GI50,DLD-1 (HCT15),≥ 10000 nM
CCc1c(N2CCN(C(=O)c3ncccc3O)CC2)c(=O)n2nc(C3=CCOCC3)nc2n1CC(=O)Nc1ccc(C(F)(F)F)cc1C [compound 3],"Rat PK, oral bioavailability (F)",Rat PK,20 % F
same,logD,logD / logP,2.9
